Here are results for 11 compounds from US20240101540A1, “TARGETED PROTEIN DEGRADATION OF PARP14 FOR USE IN THERAPY” (Ribon Therapeutics, Inc., priority 2022, published 2024).

“Also recorded” adds a separate entry of the source. Where two headings read alike, the source gives them in different places.

Assay [1] has as its target T1, catalytic domain of human PARP14 (residues 1611 to 1801) with NanoLuc tag (Homo sapiens, UniProt Q460N5).
T1 construct: expressed in transfected cells; host or cells: HEK-293T cells (ATCC), pcDNA3.1(-) vector
T1 sequence (Q460N5 1611-1801): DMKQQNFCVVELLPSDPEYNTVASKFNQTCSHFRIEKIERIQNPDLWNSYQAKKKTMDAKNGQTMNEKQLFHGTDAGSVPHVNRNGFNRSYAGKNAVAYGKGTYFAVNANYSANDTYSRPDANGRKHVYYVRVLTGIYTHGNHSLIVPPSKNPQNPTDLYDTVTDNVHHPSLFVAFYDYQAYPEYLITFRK
The experiment in a line: NanoLuc assay for the degradation of PARP14 (NanoLuc-tagged PARP14 overexpressed in HEK-293T cells, 2 hours). The assay is classed as cell-based. The conditions noted are these: Assay A (Example A): NanoLuc-tagged PARP14 degradation in HEK-293T cells.

The subject of assay [2] is Alternaria asthma mouse model. The experiment in a line: Alternaria asthma mouse model: cell counts and cytokines in BALF. The conditions noted are these: Alternaria-challenged male Balb/c mice, 30, 100, 300, 1000 mg/kg once daily for 7 days by oral gavage, vs vehicle control (P<0.05), dose-dependent starting from 100 mg/kg. The class given is in vivo. As to the method: The effect of Compound 64 was studied in an Alternaria asthma mouse model. On days 1-5, male Balb/c mice under isoflurane anesthesia were challenged by instilling a solution of 5 μg (protein weight) Alternaria in 40 μL of PBS into each nostril. Sham-treated mice were administered 40 μL of PBS into each nostril. Compound 64 was administered two days prior to Alternaria challenge (defined day as day −1) and animals were treated with vehicle (0.5% methylcellulose+0.2% Tween 20) or Compound Y (30, 100, 300, 1000 mg/kg) once daily for 7 days (defined as day −1 to day 5) by oral gavage. Total and differential cell counts of the BALF fluid samples were measured using a XT-2000iV analyzer (Sysmex). Cytokine concentrations of BALF supernatant were measured in samples from all groups using ELISA kit (Biotechne, UK).
Statistical significance is calculated using one-way ANOVA followed by Dunnett's post-tests in which the treatment groups were compared to vehicle control (P<0.05).

For orientation: DC50 means the midpoint of the concentration-degradation curve.

As for `O=C1CCC(Nc2ccc(N3CCN(CCN4CCC(COc5cc(F)c6c(=O)[nH]c(CSC7CCOCC7)nc6c5)CC4)CC3)c(F)c2)C(=O)N1` (racemic) [Example 64, 3-((3-fluoro-4-(4-(2-(4-(((5-fluoro-4-oxo-2-(((tetrahydro-2H-pyran-4-yl)thio)methyl)-3,4-dihydroquinazolin-7-yl)oxy)methyl)piperidin-1-yl)ethyl)piperazin-1-yl)phenyl)amino)piperidine-2,6-dione], in assay [1] (read-out: DC50), the DC50 was under 100 nM. Moreover, in assay [2] (ELISA of BALF supernatant), the “cytokine IL-4 in BALF” value is “significantly reduces”, the “cytokine IL-5 in BALF” value is “significantly reduces” and the “cytokine IL-33 in BALF” value is “significantly reduces”. Also, in assay [2], the “eosinophils in BALF” value was “significantly reduces” and the “total cell counts in BALF (Alternaria-induced cell infiltration)” value is recorded as “significantly reduces; also recorded: dose-dependent reduction”. `O=C1CCC(Nc2ccc(OC3CCN(C4CCC(COc5cc(F)c6c(=O)[nH]c(CSC7CCOCC7)nc6c5)CC4)CC3)cc2)C(=O)N1` (stereo not shown) [Example 87, 3-((4-((1-(4-(((5-fluoro-4-oxo-2-(((tetrahydro-2H-pyran-4-yl)thio)methyl)-3,4-dihydroquinazolin-7-yl)oxy)methyl)cyclohexyl)piperidin-4-yl)oxy)phenyl)amino)piperidine-2,6-dione]: the 50% degradation concentration (DC50) in assay [1] (read-out: DC50) is under 100 nM. `O=C1CCC(N2Cc3c(cccc3N3CCN(CC4CCN(C(=O)CN5CCC(COc6cc(F)c7c(=O)[nH]c(CSC8CCOCC8)nc7c6)CC5)CC4)CC3)C2=O)C(=O)N1` (stereo not shown) [Example 17, 3-(4-(4-((1-(2-(4-(((5-fluoro-4-oxo-2-(((tetrahydro-2H-pyran-4-yl)thio)methyl)-3,4-dihydroquinazolin-7-yl)oxy)methyl)piperidin-1-yl)acetyl)piperidin-4-yl)methyl)piperazin-1-yl)-1-oxoisoindolin-2-yl)piperidine-2,6-dione]: the DC50 in assay [1] (read-out: DC50) was under 100 nM.

`O=C1CCC(Nc2ccc(N3CCN(CCN4CCC(COc5cc(F)c6c(=O)[nH]c(CSC7CCOCC7)nc6c5)CC4)CC3)cc2)C(=O)N1` (stereo not shown) [Example 48, 3-((4-(4-(2-(4-(((5-fluoro-4-oxo-2-(((tetrahydro-2H-pyran-4-yl)thio)methyl)-3,4-dihydroquinazolin-7-yl)oxy)methyl)piperidin-1-yl)ethyl)piperazin-1-yl)phenyl)amino)piperidine-2,6-dione] registered a DC50 in assay [1] of under 100 nM. As to `O=C1CCC(Nc2ccc(OC3CC(CN4CCC(COc5cc(F)c6c(=O)[nH]c(CSC7CCN(CC(F)(F)F)CC7)nc6c5)CC4)C3)cc2)C(=O)N1` (stereo not shown) [Example 109], in assay [1] (read-out: DC50), the DC50 was under 100 nM. Consider `O=C1CCC(Nc2ccc(OCC3CC(N4CCC(COc5cc(F)c6c(=O)[nH]c(CSC7CCOCC7)nc6c5)CC4)C3)cc2)C(=O)N1` (stereo not shown) [Example 46, 3-((4-((3-(4-(((5-fluoro-4-oxo-2-(((tetrahydro-2H-pyran-4-yl)thio)methyl)-3,4-dihydroquinazolin-7-yl)oxy)methyl)piperidin-1-yl)cyclobutyl)methoxy)phenyl)amino)piperidine-2,6-dione], for which, in assay [1] (read-out: DC50), the DC50 is under 100 nM. On to `O=C1CC[C@H](Nc2ccc(N3CCN(CCN4CCC(COc5cc(F)c6c(=O)[nH]c(CSC7CCOCC7)nc6c5)CC4)CC3)cc2)C(=O)N1` (single isomer, unassigned) [Example 48a], for which, in assay [1] (read-out: DC50), the DC50 was under 100 nM. Regarding `O=C1CCC(Nc2cccc(N3CCN(CCN4CCC(COc5cc(F)c6c(=O)[nH]c(CSC7CCOCC7)nc6c5)CC4)CC3)c2)C(=O)N1` (stereo not shown) [Example 63, 3-((3-(4-(2-(4-(((5-fluoro-4-oxo-2-(((tetrahydro-2H-pyran-4-yl)thio)methyl)-3,4-dihydroquinazolin-7-yl)oxy)methyl)piperidin-1-yl)ethyl)piperazin-1-yl)phenyl)amino)piperidine-2,6-dione], the DC50 in assay [1] (read-out: DC50) was under 100 nM. Still for that read-out and setting: the result for `O=C1CCC(Nc2ccc(CN3CCC(N4CCC(COc5cc(F)c6c(=O)[nH]c(CSC7CCOCC7)nc6c5)CC4)CC3)cc2)C(=O)N1` (stereo not shown) [Example 84, 3-((4-((4-(((5-fluoro-4-oxo-2-(((tetrahydro-2H-pyran-4-yl)thio)methyl)-3,4-dihydroquinazolin-7-yl)oxy)methyl)-[1,4′-bipiperidin]-1′-yl)methyl)phenyl)amino)piperidine-2,6-dione] reads under 100 nM; that for `O=C1CCC(N2C(=O)c3cccc(N4CCN(CC5CCN(C(=O)CN6CCC(COc7cc(F)c8c(=O)[nH]c(CCC9CCOCC9)nc8c7)CC6)CC5)CC4)c3C2=O)C(=O)N1` (stereo not shown) [Example 39, 2-(2,6-dioxopiperidin-3-yl)-4-(4-((1-(2-(4-(((5-fluoro-4-oxo-2-(2-(tetrahydro-2H-pyran-4-yl)ethyl)-3,4-dihydroquinazolin-7-yl)oxy)methyl)piperidin-1-yl)acetyl)piperidin-4-yl)methyl)piperazin-1-yl)isoindoline-1,3-dione], under 100 nM. On to `O=C1CCC(Nc2ccc(N3C4CCC3CN(CCN3CCC(COc5cc(F)c6c(=O)[nH]c(CSC7CCOCC7)nc6c5)CC3)C4)cc2)C(=O)N1` (stereo not shown) [Example 121], for which, in assay [1] (read-out: DC50), the DC50 was under 100 nM.
